Measured values as given in the CheMixHub viscosity set.

Experiment: xn = mol fraction of the nth substance listed

ClC(Cl)(Cl)Cl + CCOC(C)=O
101.3 kPa
Conditions	viscosity [mPa·s]
298 K, x1 = 0.1581	0.517
298 K, x1 = 0.3048	0.57
298 K, x1 = 0.501	0.644
298 K, x1 = 0.6498	0.713
298 K, x1 = 0.8438	0.808
303.15 K, x2 = 0.1014	0.758
303.15 K, x2 = 0.1972	0.6991
303.15 K, x2 = 0.2976	0.6483
303.15 K, x2 = 0.394	0.6016
303.15 K, x2 = 0.4966	0.5603
303.15 K, x2 = 0.5986	0.5236
303.15 K, x2 = 0.6989	0.4883
303.15 K, x2 = 0.802	0.4572
303.15 K, x2 = 0.898	0.4289
318 K, x1 = 0.1518	0.4229
318 K, x1 = 0.3052	0.4655
318 K, x1 = 0.5035	0.5279
318 K, x1 = 0.6517	0.5797
318 K, x1 = 0.854	0.6674

CCN(CC)CC + CCc1ccccc1
303.15 K, 101 kPa
Conditions	viscosity [mPa·s]
x1 = 0.01075	0.5914
x1 = 0.02054	0.5873
x1 = 0.03021	0.5822
x1 = 0.04405	0.5755
x1 = 0.05034	0.5715
x1 = 0.06324	0.5666
x1 = 0.07098	0.5623
x1 = 0.0794	0.5569
x1 = 0.09408	0.5505
x1 = 0.1003	0.5476

[Br-].[Li+] + CN1CCCC1=O
298.15 K, 101 kPa
Conditions	viscosity [mPa·s]
x1 = 0.02596	2.385
x1 = 0.02626	2.359
x1 = 0.02735	2.37
x1 = 0.05088	3.13
x1 = 0.05114	3.124
x1 = 0.05202	3.192
x1 = 0.07505	4.349
x1 = 0.07536	4.344
x1 = 0.07626	4.329

ClC(Cl)(Cl)Cl + CN(C)C=O
viscosity [mPa·s], 101.3 kPa
Conditions	x1 = 0.1208	x1 = 0.129	x1 = 0.2535	x1 = 0.2556	x1 = 0.4423	x1 = 0.4437	x1 = 0.5937	x1 = 0.595	x1 = 0.8073	x1 = 0.8235
298 K	–	0.879	–	0.918	–	0.958	–	0.966	0.949	–
318 K	0.6789	–	0.7118	–	0.745	–	0.7608	–	–	0.7506

CCCC(C)=O + CN(C)c1ccccc1
viscosity [mPa·s], 101 kPa
Conditions	303.15 K	308.15 K
x2 = 0.0756	0.574	0.525
x2 = 0.1362	0.669	0.611
x2 = 0.2003	0.76	0.7
x2 = 0.2795	0.875	0.803
x2 = 0.3412	0.941	0.873
x2 = 0.4101	1.012	0.94
x2 = 0.4921	1.072	1.001
x2 = 0.5741	1.112	1.041
x2 = 0.6512	1.134	1.063
x2 = 0.7214	1.143	1.071
x2 = 0.7914	1.148	1.074
x2 = 0.8512	1.15	1.076
x2 = 0.9214	1.159	1.085
